In patent US11628159B2, “Cell-protective compounds and their use” (ETH ZURICH, priority 2017, dated 2023):

System: GRK2-mediated phosphorylation of SRSF1
Experiment: Immunoblot of SRSF1 phosphorylation (pSRSF1) in HEK (human embryonic kidney) cells
Type: cell-based
Conditions: 10 microM, 60 h, relative to vehicle
Procedure: A, The GRK2-mediated phosphorylation of SRSF1/Srsf1 was determined by immunoblot in lysates from isolated neonatal cardiomyocytes from Tg-SRSF1 mice after incubation for 60 h with 10 microM of paroxetine, 1-(1,3-benzodioxol-5-yl)-4-(cyclopropane-carbonyl)-3-hydroxy-2-phenyl-2H-pyrrol-5-one (“Compound-1”) or 4-(1,3-benzodioxol-5-yl)pyrimidine (“Compound-4”) relative to vehicle-treated control (“C”) cardiomyocytes. B, Immunoblot detection of GRK2-mediated phosphorylation of SRSF1 (pSRSF1) was performed with lysates from HEK (human embryonic kidney) cells incubated for 60 h with 10 microM of 4-(1,3-benzodioxol-5-yl)pyrimidine (“Compound-4”), 1-(1,3-benzodioxol-5-ylmethyl)-5-(4-chlorophenyl)-2-methyl-pyrrole-3-carboxamide (“Compound-24”) or (4R)-N3-(1,3-benzodioxol-5-ylmethyl)-N4-[[3-(trifluoromethyl)phenyl]-methyl]pyrrolidine-3,4-dicarboxamide (“Compound-5”) relative to vehicle-treated controls (“C”).
Briefly, the hearts were dissected out from 2-3 day-old mice, atria and aorta were removed, and the hearts were transferred into sterile buffer A (137 mM NaCl, 5.36 mM KCl, 0.81 mM MgSO4, 5.55 mM dextrose, 0.44 mM KH2PO4, 0.34 mM Na2HPO4, 20 mM HEPES, 100 U/ml penicillin, 100 microg/ml streptomycin, pH 7.4). […]

`c1cc(-c2ccc3c(c2)OCO3)ncn1` [Compound-4, 4-(1,3-benzodioxol-5-yl)pyrimidine] was tested, and the “SRSF1 phosphorylation in human kidney cells” value was “inhibited”.
